Experimental data from patent publication US20230027066A1 (Urovant Sciences GmbH, priority 2019, published 2023).

System: men and women with overactive bladder
Assay: Phase 3 study of vibegron 75 mg vs placebo and tolterodine ER 4 mg, 12 weeks, efficacy (voiding and urine volume diary)
Assay type: in vivo, human
Conditions: for First 50% Reduction in Urgency Episodes, Events / First 100% Reduction in UUI Episodes, Events: events of Events/Censored
Method: Enrollment of patients included individuals with OAB Wet (those with UUI, the involuntary loss of urine accompanied by urgency) and OAB Dry (those without UUI). A total of 1,518 patients were randomized across 215 study sites into one of three groups for a 12-week treatment period.
The study consisted of a Screening Period (1 to 5 weeks), a single-blind Run-in Period (2 weeks), a randomized double-blind Treatment Period (12 weeks), and a Follow-up Period (4 weeks).
Tolterodine ER 4 mg was the active control. […] Between the Baseline and Week 12 Visits, patients had study assessments at Week 4 and Week 8.
The Patient Voiding Diary was used by participants (via the eDiary or paper Diary) to record the frequency of daily OAB symptoms including all micturitions, urgency, incontinence, and main reason for incontinence by selecting the respective box for each symptom occurring during the course of a given day and night.
Urine volume data were collected separately by patients using the Urine Volume component of the eDiary, or the paper Urine Volume Chart. The Urine Volume Chart is a tool used in clinical practice and clinical investigation to assess voiding functions over a 24-hour period and is regarded as a useful instrument in the investigation of patients with voiding symptoms. Urine volume may be collected during any one (1) of the 7 Diary Days prior to the visit, and it should be recorded for ˜24 hours starting from the time the patient gets up for the day and continues until the time the patient gets up for the day on the next day.
For the purpose of this study, the number of micturitions was defined as the number of times a patient has voided in the toilet as indicated on the Patient Voiding Diary. Average daily micturitions were calculated using the daily entries in the Patient Voiding Diary, which was completed over the 7 days prior to each study visit. Average daily number of micturitions were calculated as the total number of micturitions that occurred on a Complete Diary Day divided by the number of Complete Diary Days in the Patient Voiding Diary. A complete diary day required confirmation by the patient in the Patient Voiding Diary that all voids and leakages had been recorded for the diary day. Baseline was defined as the average number of micturitions occurring during the last evaluable diary prior to the Baseline Visit.
The number of UUI episodes was defined as the number of times a patient had checked “urge” as the reason for accidental urine leakage. Average daily UUI episodes at each study visit were calculated in the same manner as described above for the micturition endpoint. The UUI endpoint were analyzed using only OAB Wet patients.
For the analysis of the co-primary endpoints (change from baseline in average number of daily micturitions at Week 12 and change from baseline in average number of daily urge urinary incontinence episodes at Week 12, and placebo adjustment of each), a mixed model for repeated measure (MMRM) with restricted maximum likelihood estimation was used. This model corrects for dropout and accounts for the fact that measurements taken on the same patient over time tend to be correlated by using all available information on patients within the same covariate set to derive an estimate of the treatment effect for a dropout-free population. The analysis model for each efficacy endpoint includes terms for treatment, visit, OAB Type (Wet vs Dry), Sex (Female vs Male), Region (US vs Rest of World), baseline score, and interaction of visit by treatment.
Primary inferences were drawn from treatment differences for the changes from baseline derived from the MMRM models at Week 12. As part of secondary objectives, the treatment differences for each post baseline visit were also derived using the same MMRM model. […]

[1] = Week 12, Age ≥ 75 years (posthoc analysis)
[2] = Week 12, No Prior ACH Use in last 12 Mo.
[3] = Week 12, No Prior B3 Agonist Use in last 12 Mo.
[4] = Week 12, Prior ACH Use in last 12 Mo.
[5] = Week 12, Prior B3 Agonist Use in last 12 Mo.

O=C(Nc1ccc(C[C@@H]2CC[C@H]([C@H](O)c3ccccc3)N2)cc1)[C@@H]1CCc2nccc(=O)n21 [Vibegron, (6S)-N-[4-[[(2S,5R)−5-[(R)-hydroxy(phenyl)methyl]pyrrolidin−2-yl]methyl]phenyl]−4-oxo−7,8-dihydro−6H-pyrrolo[1,2-a]pyrimidine−6-carboxamide]
Change from baseline in average volume voided per micturition, LS Mean (SE) (Week 8): 21.4 (3.20) mL | Estimated Incidence of Subjects with 50% Decrease from Baseline (urgency episodes) (Week 8): 31.8 | Estimated Incidence of Subjects with 100% Decrease from Baseline (UUI episodes) (Week 8): 21.4 | Total Incontinence, Active - Placebo LS Mean Difference (SE) (Week 8): −0.7 (0.15) | Urgency episodes, Active - Placebo LS Mean Difference (Week 8): −0.8 | First 50% Reduction in Urgency Episodes, Events (Week 8): 166/360 | First 100% Reduction in UUI Episodes, Events (Week 8): 86/317 | Average Daily Number of Total Incontinence, Mean (SD) (Week 12): 1.89 (3.120) | Average daily number of urgency episodes, Mean (SD) (Week 12): 5.29 (4.500) | Average volume voided per micturition, Active - Placebo LS Mean Difference (Week 12): 21.2 mL | Average volume voided per micturition, Week 12 Mean (SD) (Week 12): 175.3 (81.78) mL | Change from Baseline in Average Daily Number of Total Incontinence, LS Mean (SE) (Week 12): −2.3 (0.15) | Change from baseline in average daily number of urgency episodes, LS Mean (Week 12): −2.7 | Change from baseline in average volume voided per micturition, LS Mean (SE) (Week 12): 23.5 (3.26) mL | Estimated Incidence of Subjects with 50% Decrease from Baseline (urgency episodes) (Week 12): 43.8 | Estimated Incidence of Subjects with 100% Decrease from Baseline (UUI episodes) (Week 12): 30.0 | Total Incontinence, Active - Placebo LS Mean Difference (SE) (Week 12): −0.7 (0.16) | Urgency episodes, Active - Placebo LS Mean Difference (Week 12): −0.7 | Micturitions: Week 12 CFB Mean (descriptive statistics) (Week 12, <65 yrs): −1.99 | UUI: Week 12 CFB Mean (descriptive statistics) (Week 12, African American): −1.61 | UUI: Week 12 CFB Median (Week 12, African American): −1.26 | Micturitions: Week 12 CFB LS Mean (95% CI) (Week 12, Age < 65 years): −1.7 | UUI: Week 12 CFB LS Mean (95% CI) (Week 12, Age < 65 years): −2.0 | UUI: Week 12 CFB Mean (descriptive statistics) (Week 12, Age < 65 years): −2.08 | Micturitions: Week 12 CFB LS Mean (95% CI) (Week 12, Age ≥ 65 years): −1.9 | UUI: Week 12 CFB LS Mean (95% CI) (Week 12, Age ≥ 65 years): −2.0 | UUI: Week 12 CFB Mean (descriptive statistics) (Week 12, Age ≥ 65 years): −1.94 | Micturitions: Week 12 CFB LS Mean (95% CI) [1]: −2.1 | UUI: Week 12 CFB LS Mean (95% CI) [1]: −2.0 | UUI: Week 12 CFB Mean (descriptive statistics) (Week 12, Asian): −0.07 | UUI: Week 12 CFB Median (Week 12, Asian): 0.00 | Micturitions: Week 12 CFB LS Mean (95% CI) (Week 12, Females): −1.9 | Micturitions: Week 12 CFB Mean (descriptive statistics) (Week 12, Females): −2.05 | UUI: Week 12 CFB LS Mean (95% CI) (Week 12, Females): −2.1 | UUI: Week 12 CFB Mean (descriptive statistics) (Week 12, Females): −2.10 | Micturitions: Week 12 CFB LS Mean (95% CI) (Week 12, Males): −1.7 | Micturitions: Week 12 CFB Mean (descriptive statistics) (Week 12, Males): −1.97 | UUI: Week 12 CFB LS Mean (95% CI) (Week 12, Males): −1.6 | UUI: Week 12 CFB Mean (descriptive statistics) (Week 12, Males): −1.35 | Micturitions: Week 12 CFB Mean (descriptive statistics) (Week 12, Males with BPH): −1.50 | UUI: Week 12 CFB Mean (descriptive statistics) (Week 12, Males with BPH): −1.09 | Micturitions: Week 12 CFB Mean (descriptive statistics) (Week 12, Males without BPH): −2.26 | UUI: Week 12 CFB Mean (descriptive statistics) (Week 12, Males without BPH): −1.51 | Micturitions: Week 12 CFB Mean (descriptive statistics) [2]: −2.05 | UUI: Week 12 CFB Mean (descriptive statistics) [2]: −2.12 | Micturitions: Week 12 CFB Mean (descriptive statistics) [3]: −2.01 | UUI: Week 12 CFB Mean (descriptive statistics) [3]: −2.03 | Micturitions: Week 12 CFB LS Mean (95% CI) (Week 12, Non-White): −1.7 | Micturitions: Week 12 CFB Mean (descriptive statistics) (Week 12, Non-White): −2.18 | UUI: Week 12 CFB LS Mean (95% CI) (Week 12, Non-White): −1.3 | UUI: Week 12 CFB Mean (descriptive statistics) (Week 12, Non-White): −1.14 | UUI: Week 12 CFB Median (Week 12, Non-White): −1.00 | Micturitions: Week 12 CFB LS Mean (95% CI) (Week 12, Overall): −1.8 | Micturitions: Week 12 CFB Mean (descriptive statistics) (Week 12, Overall): −2.04 | UUI: Week 12 CFB LS Mean (95% CI) (Week 12, Overall): −2.0 | UUI: Week 12 CFB Mean (descriptive statistics) (Week 12, Overall): −2.01 | Micturitions: Week 12 CFB Mean (descriptive statistics) [4]: −1.97 | UUI: Week 12 CFB Mean (descriptive statistics) [4]: −1.46 | Micturitions: Week 12 CFB Mean (descriptive statistics) [5]: −2.83 | UUI: Week 12 CFB Mean (descriptive statistics) [5]: −1.64 | Micturitions: Week 12 CFB LS Mean (95% CI) (Week 12, Region: Non-US): −1.8 | Micturitions: Week 12 CFB Mean (descriptive statistics) (Week 12, Region: Non-US): −2.26 | UUI: Week 12 CFB LS Mean (95% CI) (Week 12, Region: Non-US): −2.4 | UUI: Week 12 CFB Mean (descriptive statistics) (Week 12, Region: Non-US): −2.60 | Micturitions: Week 12 CFB LS Mean (95% CI) (Week 12, Region: US): −1.9 | Micturitions: Week 12 CFB Mean (descriptive statistics) (Week 12, Region: US): −2.01 | UUI: Week 12 CFB LS Mean (95% CI) (Week 12, Region: US): −1.9 | UUI: Week 12 CFB Mean (descriptive statistics) (Week 12, Region: US): −1.92 | Micturitions: Week 12 CFB LS Mean (95% CI) (Week 12, White): −1.8 | Micturitions: Week 12 CFB Mean (descriptive statistics) (Week 12, White): −2.01 | UUI: Week 12 CFB LS Mean (95% CI) (Week 12, White): −2.2 | UUI: Week 12 CFB Mean (descriptive statistics) (Week 12, White): −2.23 | UUI: Week 12 CFB Median (Week 12, White): −1.78 | Micturitions, Week 12 LS Mean Change from Baseline (Placebo-Adjusted) (Week 12, co-primary endpoint): −0.5 | UUI Episodes, Week 12 LS Mean Change from Baseline (Placebo-Adjusted) (Week 12, co-primary endpoint): −0.6 | First 50% Reduction in Urgency Episodes, Events (Week 12): 225/301 | First 100% Reduction in UUI Episodes, Events (Week 12): 119/284 | Total Incontinence Episodes, Week 12 LS Mean Change from Baseline (Placebo-Adjusted) (Week 12, secondary endpoint): −0.7 | Urgency Episodes, Week 12 LS Mean Change from Baseline (Placebo-Adjusted) (Week 12, secondary endpoint): −0.7 | Micturitions, change at Week 12, mean (SD) (Week 12, subpopulation Age ≥65 years): −2.10 (2.83)
